Emax and EC50 data for 6 molecules are collected here from patent publication US12459952B2, “TREM2 modulators” (Muna Therapeutics ApS, priority 2024, dated 2025).

The target in this experiment is T1, Human TREM2 (Homo sapiens, UniProt Q9NZC2).
T1 construct: expressed in transfected cells
The experiment can be described thus: Human TREM2 cellular phospho-Syk AlphaLISA assay in HEK293/DAP12+TREM2 stable cell line. Format: cell-based. To be noted: HEK293/DAP12+TREM2 cells; for Emax: maximal response relative to the maximal response of the reference agonist, phospho-Syk AlphaLISA; for EC50: phospho-Syk (Tyr525/526) AlphaLISA signal, 30 min incubation. (In general: Bead proximity is the source of the signal in Alpha formats.)

T1 sequence (Q9NZC2 19-230): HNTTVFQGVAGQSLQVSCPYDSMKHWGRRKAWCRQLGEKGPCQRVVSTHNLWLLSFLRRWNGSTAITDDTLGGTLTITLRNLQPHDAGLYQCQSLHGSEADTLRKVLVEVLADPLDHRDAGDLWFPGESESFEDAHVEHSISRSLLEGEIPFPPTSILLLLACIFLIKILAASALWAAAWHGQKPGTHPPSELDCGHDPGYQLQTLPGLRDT
T1 sequence (O43914 22-113 partner): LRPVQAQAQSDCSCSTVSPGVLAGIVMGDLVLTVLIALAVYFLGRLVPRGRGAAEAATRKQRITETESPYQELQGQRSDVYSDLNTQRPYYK

Take `Cc1cncc(OC2CN(c3nc(-c4ccc(C#N)cc4F)c4nc(C(F)(F)F)n(C)c(=O)c4n3)C2)n1` [Example 6, 3-fluoro-4-(7-methyl-2-(3-((6-methylpyrazin-2-yl)oxy)azetidin-1-yl)-8-oxo-6-(trifluoromethyl)-7,8-dihydropyrimido[5,4-d]pyrimidin-4-yl)benzonitrile]: the maximal response (Emax) is < 75% and the concentration for a half-maximal effect (EC50) lay in the range of 100 to 1000 nM.

`Cn1c(C(F)(F)F)nc2c(-c3ccc(C#N)cc3F)nc(N3CC(Oc4cnccn4)C3)nc2c1=O` [Example 5, 3-fluoro-4-(7-methyl-8-oxo-2-(3-(pyrazin-2-yloxy)azetidin-1-yl)-6-(trifluoromethyl)-7,8-dihydropyrimido[5,4-d]pyrimidin-4-yl)benzonitrile]: the Emax is < 75% and the EC50 is 10 to 100 nM.

`Cn1c(C(F)(F)F)nc2c(-c3ccc(F)cc3F)nc(N3CC(Oc4cnn(C5CC5)c4)C3)nc2c1=O` [Example 32, 6-(3-((1-cyclopropyl-1H-pyrazol-4-yl)oxy)azetidin-1-yl)-8-(2,4-difluorophenyl)-3-methyl-2-(trifluoromethyl)pyrimido[5,4-d]pyrimidin-4(3H)-one]: the maximal response (Emax) is < 75% and the concentration for a half-maximal effect (EC50) is 10 to 100 nM.

With `Cn1c(C(F)(F)F)nc2c(-c3ccc(C#N)cc3F)nc(N3CC(Oc4cnc(C#N)cn4)C3)nc2c1=O` [Example 7, 5-((1-(4-(4-cyano-2-fluorophenyl)-7-methyl-8-oxo-6-(trifluoromethyl)-7,8-dihydropyrimido[5,4-d]pyrimidin-2-yl)azetidin-3-yl)oxy)pyrazine-2-carbonitrile], the maximal response (Emax) is < 75% and the EC50 lay within 100 to 1000 nM.

For `COc1ccc(-c2nc(N3CC(Oc4cnn(C5CC5)c4)C3)nc3c(=O)n(C)c(C(F)(F)F)nc23)c(F)c1` [Example 36, 6-(3-((1-cyclopropyl-1H-pyrazol-4-yl)oxy)azetidin-1-yl)-8-(2-fluoro-4-methoxyphenyl)-3-methyl-2-(trifluoromethyl)pyrimido[5,4-d]pyrimidin-4(3H)-one], the Emax is < 75% and the 50% effective concentration (EC50) lay within 100 to 1000 nM.

Turning to `Cn1c(C(F)(F)F)nc2c(-c3ccc(C#N)cc3F)nc(N3CC(Oc4cnnc(Cl)c4)C3)nc2c1=O` [Example 26, 4-(2-(3-((6-chloropyridazin-4-yl)oxy)azetidin-1-yl)-7-methyl-8-oxo-6-(trifluoromethyl)-7,8-dihydropyrimido[5,4-d]pyrimidin-4-yl)-3-fluorobenzonitrile], the Emax is < 75% and the concentration for a half-maximal effect (EC50) lay in the range of 100 to 1000 nM.

Usually Emax stands for the maximal effect, on the per cent scale that the assay sets. One may read the EC50 as the midpoint of the concentration-response curve. A high value points to lower potency in that assay.
